Source: US10471046B2, “Method for treating, preventing, or reducing the risk of skin infection” (Melinta Subsidiary Corp., priority 2014, dated 2019)
≈ marks a conversion by molar mass, not a printed value.

Tested on: S. aureus
Assay: Minimum inhibitory concentrations (MICs) for S. aureus of exemplary compounds (Table 2)
Type: cell-based
Details: Staphylococcus aureus, minimum inhibitory concentrations for S. aureus; read-out: MICs
How it was run: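 MICs (μg/mL) against S. aureus come from microtiter-tray dilution susceptibility testing per NCCLS M7-A5, comparing growth with and without compound.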

Compared with `CC(=O)NC[C@H]1CN(c2ccc(-c3ccc(CN(C)C(=O)c4cccn4C)cc3)c(F)c2)C(=O)O1` [Compound 4051, 1-Methyl-1H-pyrrole-2-carboxylic acid {4′-[5-(S)-(acetylamino-methyl)-2-oxo-oxazolidin-3-yl]-2′-fluoro-biphenyl-4-ylmethyl}-methyl-amide], `CC(=O)NC[C@H]1CN(c2ccc(-c3ccc(CNCc4cccn4C)cc3)c(F)c2)C(=O)O1` [Compound 4059, N-[3-(2-Fluoro-4′-{[(1-methyl-1H-pyrrol-2-ylmethyl)-amino]-methyl}-biphenyl-4-yl)-2-oxo-oxazolidin-5-(S)-ylmethyl]-acetamide] is 2-fold lower in MIC: 4 µg/mL (≈ 8.36 µM) for the first, 2 µg/mL (≈ 4.44 µM) for the second.

First: CSc1nnn(Cc2ccc(-c3ccc(N4C[C@H](CNC(C)=O)OC4=O)cc3F)cc2)n1 [Compound 1080, N-{3-[2-Fluoro-4′-(5-methylsulfanyl-tetrazol-2-ylmethyl)-biphenyl-4-yl]-2-oxo-oxazolidin-5-(S)-ylmethyl}-acetamide]
Second: CC(=O)NC[C@H]1CN(c2ccc(-c3ccc(CNCCSc4ccccn4)cc3)c(F)c2)C(=O)O1 [Compound 5004, N-[3-(2-Fluoro-4′-{[2-(pyridin-2-ylsulfanyl)-ethylamino]-methyl}-biphenyl-4-yl)-2-oxo-oxazolidin-5-(S)-ylmethyl]-acetamide]
The MIC of the first is 4-fold lower: 0.25 µg/mL (≈ 0.548 µM) for the first, 1 µg/mL (≈ 2.02 µM) for the second.

Going from `CC(=O)NC[C@H]1CN(c2ccc(-c3ccc([C@H](O)Cn4ccnc4)cc3)c(F)c2)C(=O)O1` [Compound 1046, N-{3-[2-Fluoro-4′-(1-(S)-hydroxy-2-imidazol-1-yl-ethyl)-biphenyl-4-yl]-2-oxo-oxazolidin-5-(S)-ylmethyl}-acetamide] to `CC(=O)NC[C@H]1CN(c2ccc(-c3ccc([C@H](CO)NCc4ccncc4)cc3)c(F)c2)C(=O)O1` [Compound 4029, N-[3-(2-Fluoro-4′-{2-hydroxy-1-(R)-[(pyridin-4-ylmethyl)-amino]-ethyl}-biphenyl-4-yl)-2-oxo-oxazolidin-5-(S)-ylmethyl]-acetamide], the MIC rises from 1 µg/mL (≈ 2.28 µM) to 4 µg/mL (≈ 8.36 µM) (4-fold).

First: CC(=O)NC[C@H]1CN(c2ccc(-c3ccc(CNCc4ccc(CO)o4)cc3)c(F)c2)C(=O)O1 [Compound 4075, N-[3-(2-Fluoro-4′-{[(5-hydroxymethyl-furan-2-ylmethyl)-amino]-methyl}-biphenyl-4-yl)-2-oxo-oxazolidin-5-(S)-ylmethyl]-acetamide]
Second: CC(=O)NC[C@H]1CN(c2ccc(-c3ccc(CNC(C(N)=O)c4cccnc4)cc3)c(F)c2)C(=O)O1 (stereo partly drawn) [Compound 4293, 2-({4′-[5-(S)-(Acetylamino-methyl)-2-oxo-oxazolidin-3-yl]-2′-fluoro-biphenyl-4-ylmethyl}-amino)-2-pyridin-3-yl-acetamide]
The MIC of the first is 2-fold lower: 2 µg/mL (≈ 4.28 µM) for the first, 4 µg/mL (≈ 8.14 µM) for the second.

First: O=C1O[C@@H](Cn2ccnn2)CN1c1ccc(-c2ccc(Cn3cccn3)cc2)c(F)c1 [Compound 1085, 3-(2-Fluoro-4′-pyrazol-1-ylmethyl-biphenyl-4-yl)-5-(R)-[1,2,3]triazol-1-ylmethyl-oxazolidin-2-one]
Second: NC[C@H]1CN(c2ccc(-c3ccc(Cn4cnnn4)cc3)c(F)c2)C(=O)O1 [Compound 1032, 5-(S)-Aminomethyl-3-(2-fluoro-4′-tetrazol-1-ylmethyl-biphenyl-4-yl)-oxazolidin-2-one]
The MIC of the first is 64-fold lower: 0.5 µg/mL (≈ 1.19 µM) for the first, 32 µg/mL (≈ 86.9 µM) for the second.

`CC(=O)NC[C@H]1CN(c2ccc(-c3ccc(Cn4cnc5c(NCCCF)ncnc54)cc3)c(F)c2)C(=O)O1` [Compound 1098, N-(3-{2-Fluoro-4′-[6-(3-fluoro-propylamino)-purin-9-ylmethyl]-biphenyl-4-yl}-2-oxo-oxazolidin-5-(S)-ylmethyl)-acetamide] showed an MIC of 2 µg/mL (≈ 3.73 µM).

Same assay, conditions: Staphylococcus aureus, read-out: MICs

With `CC(=O)NC[C@H]1CN(c2ccc(-c3ccc(Cc4c[nH]cn4)cc3)c(F)c2)C(=O)O1` [Compound 1086, N-{3-[2-Fluoro-4′-(1H-imidazol-4-ylmethyl)-biphenyl-4-yl]-2-oxo-oxazolidin-5-(S)-ylmethyl}-acetamide] the MIC was 0.5 µg/mL (≈ 1.22 µM).
